Experimental findings from US20070078262A1, “Thiomorpholino steroid compounds, the use thereof for the preparation of meiosis-regulating medicaments and method for the preparation thereof” (SCHERING AKTIENGESELLSCHAFT, priority 2003, published 2007) are described below.

Data set [1] relates to Cumulus Enclosed Oocytes (CEOs). Kind of data set: Cumulus enclosed oocyte assay (meiosis activation in Hx-medium). The class given is cell-based, mice (C57BL/6J×DBA/2J F1). An excerpt:
Activation of MI arrested oocytes can be assessed by the disappearance of the germinal vesicle (GV). The disappearance of the GV, called germinal vesicle breakdown (GVB) is followed by the extrusion of the first polar body (PB) (C. Grøndahl, J. L. Ottesen, M. Lessi, P. Faarup, A. Murray, F C Grønvald, C. Hegele-Hartung, I. Ahnfelt-Rønne, “Meiosis-activating sterol promotes resumption of meiosis in mouse oocytes cultured in vitro in contrast to related oxysterols”, Biol. Reprod., 58, 1297-1302 (1998); C. Hegele-Hartung, J. Kuhnke, M. Lessi, C. Grøndahl, J. Ottesen, H. M. Beier, S. Eisner, U. Eichenlaub-Ritter, “Nuclear and cytoplasmic maturation of mouse oocytes after treatment with synthetic meiosis-activating sterol in vitro”, Biol. Reprod., 61, 1362-1372 (1999)).
Cumulus Enclosed Oocytes (CEOs) were obtained from immature female mice (C57BL/6J×DBA/2J F1) weighing 13-16 grams, that were kept under controlled temperature (20-22° C.), light (lights on 06:00-18:00) and relative humidity (50-70%). The mice received an intra-peritoneal injection of 0.2 ml gonadotropins containing 20 IU FSH. 48 hours later the animals were killed by cervical dislocation. The ovaries were dissected out and the oocytes were isolated in Hx-medium (see below) under a stereomicroscope by manual rupture of the follicles using a pair of 27-gauge needles. Cumulus enclosed oocytes displaying an intact germinal vesicle were placed in α-minimum essential medium (α-MEM without ribonucleosides supplemented with 8 mg/ml Human Serum Albumin (HSA), 0.23 mM pyruvate, 2 mM glutamine, 100 IU/ml penicillin and 100 μg/ml streptomycin). To maintain the oocytes in the germinal vesicle stage this medium was supplemented with 3 mM hypoxanthine, designated as Hx-medium.
The CEOs (35-45 CEOs in 0.4 ml Hx-medium) were cultured in a humidified atmosphere of 5% CO2 in air for 24 hours at 37° C. One control well (identical medium with no addition of test compound) was always cultured simultaneously with test wells.
By the end of the culture period the number of CEOs with germical vesicle (GV), germinal vesicle breakdown (GVB) and polar bodies (PB), respectively, were counted. The % GVB, defined as the percentage of CEOs undergoing GVB per total number of CEOs in that well, was calculated as: % GVB=(number of GVB+number of PB/total number of CEOs)×100
The % PB was defined as the percentage of CEOs displaying one extruded polar body per total number of CEOs in that well.
For each compound two experiments were performed and the results compared to Hx-medium as a control and FF-MAS at a concentration of 10 μM.

A short description of a further data set: physchem. The settings on record: water.
For another data set, the system named is mouse oocytes. As to the kind of experiment: In vitro fertilization (IVF) after in vitro maturation of oocytes. The class given is cell-based, mice (C57BL/6J×DBA/2J F1). As for the experimental part: Changes in the subsequent IVF are therefore probably due to effects of the test compounds on cytoplasmic maturation.
Immature female mice (C57BL/6J×DBA/2J F1) in the age of 21-24 days were used as oocyte donors. Animals were given an i.p. injection of 10 IU pregnant mare serum gonadotropin (PMSG) to induce follicular growth. Animals were killed by cervical dislocation 48 hours later and the ovaries were dissected out. As sperm donors eight week old male mice (C57BL/6J×DBA/2J F1) were used.
Oocytes were isolated from the ovaries by manual rupture of the follicles using a pair of 27-gauge needles. Spherical naked oocytes (NkO) and CEOs displaying an intact GV were selected and placed in α-minimum essential medium (α-MEM without ribonucleosides, Gibco BRL, Gaithersburg; Cat. No. 22561) supplemented with 8 mg/ml human serum albumin (HSA), 0.23 mM pyruvate, 2 mM glutamine, 100 IU/ml penicillin and 100 μg/ml streptomycin.
The oocytes were rinsed three times in culture medium without oil overlay in 4-well multidishes containing 0.4 ml of the respective oocyte culture medium.
The oocyte culture medium was supplemented with 6.4% Fetal Bovine Serum (FBS). Solutions of novel compound IA and of the two compounds in comparison as mentioned were prepared from a stock solution containing 1 mg/ml of compound dissolved in absolute ethanol. The control group was cultured with a corresponding amount of ethanol.
After a culture time of 18-19 hours oocytes were further processed for in vitro fertilization. […] Oocytes were briefly washed without any test compound and subsequently transferred to the insemination dishes prepared in advance, which contained approximately 600.000 capacitated sperm cells per 500 μl IVF medium (obtained from the epididymides of male mice). The dishes were then incubated under defined gas conditions (5% CO2 in air) at 37° C. in a modified α-MEM IVF medium supplemented with 8 mg/ml HSA, 0.23 mM pyruvate, 100 IU penicillin/ml and 100 μg streptomycin/ml as described above for oocyte maturation.
Examination of the oocytes was carried out 22-24 hours after insemination in order to check fertilization and to record the number of pronucleus (PN) and 2-cell stage embryos. The fertilization rate was determined as the number of oocytes that had reached the PN or 2-cell embryo stage, relative to the total number inseminated.

Converted amounts (≈) assume the structure as drawn.

`C[C@H](CN1CCSCC1)[C@H]1CC=C2C3=C(CC[C@@]21C)[C@@]1(C)CC[C@H](O)C(C)(C)[C@@H]1CC3` [Compound IA, (20S)-20-[(thiomorpholin-4-yl)methyl]-4,4-dimethyl-5α-pregna-8,14-dien-3β-ol]: the “efficiency of meiosis activation among the compounds tested” value in data set [1] (CEOs in the presence of Hx) is “the most efficient compound tested”. Also, the “meiosis activation in CEOs monitored by GVB and PB (FIG. 2)” value in data set [1] (at 1 μM (p<0.01; n=10), 3 μM (p<0.05; n=7) and 10 μM (p<0.001; n=6)) is “significantly improved meiosis activation”. This compound also came in with a solubility in the data set “physchem” of approximately 4 µg/mL (≈ 9.01 µM). For the same compound, in the data set on mouse oocytes (already at 0.1 μM, tends to be even higher at 1 μM), the “effect on 2-cell and blastocyst rate” value was “beneficial effect”. Further, the “fertilization rates of mouse oocytes compared to vehicle control (FIG. 3)” value in the data set on mouse oocytes (in vitro maturation without hypoxanthine, then IVF, n=18) is listed as “higher fertilization rates”.
